Data: patent US20130096088A1, “Inhibitors of Protein Tyrosine Kinase Activity” (METHYLGENE INC., priority 2011, published 2013)
Where two headings read alike, the source gives them in different places.

Assays:
[1] = system: laser-induced choroidal neovascularization (CNV); experiment: In vivo choroidal neovascularization (CNV) model; set-up: species or system rat; conditions: Brown-Norway rats, injection on Day 3, CNV area on Day 10
Description: In Vivo Choroidal Neovascularization (CNV) Model This test measures the capacity of compounds to inhibit CNV progression. CNV is the main cause of severe vision loss in patients suffering from age-related macular degeneration (AMD). Male Brown-Norway rats (Charles River Japan Co., Ltd.) were used in these studies. Rats were anesthetized by intraperitoneal injection of pentobarbital, and the right pupil was dilated with 0.5% tropicamide and 0.5% phenylephrine hydrochloride. The right eye received 6 laser burns between retinal vessels using a slit lamp delivery system of Green laser Photocoagulator (Nidex Inc., Japan), and microscope slide glass with 10 mg/mL hyaluronic acid (SIGMA) used as a contact lens. The laser power was 200 mW for 0.1 second and spot diameter was 100 μm. At the time of laser burn, bubble production was observed; which is an indication of rupture of Bruch's membrane which is important for CNV generation. After animals were anesthetized, and the right pupil dilated (as mentioned above), the right eye of the animal received the compound or vehicle by an injection (3 μL/eye) at doses of 3 or 10 nmol/eye on Day 3. The compounds were dissolved or suspended in CBS, PBS, or other adequate vehicles before injection. On Day 10, the animals were anesthetized with ether, and high molecular weight fluorescein isothiocyanate (FITC)-dextran (SIGMA, 2×10^6 MW) was injected via a tail vein (20 mg/rat). About 30 min after FITC-dextran injection, animals were euthanized by ether or carbon dioxide, and the eyes were removed and fixed with 10% formaline neutral buffer solution. After over 1 hour of fixation, RPE-choroid-sclera flat mounts were obtained by removing cornea, lens and retina from the eyeballs. The flat mounts were mounted in 50% glycerol on a microscope slide, and the portion burned by laser was photographed using a fluorescence microscope (Nikon Corporation, excitation filter: 465-495 nm, absorption filter: 515-555 nm). The CNV area was obtained by measurement of hyper-fluorescence area observed on the photograph using Scion image. The average CNV area of 6 burns was used as an individual value of CNV area, and the average CNV area of compound treated group was compared with that of the vehicle-treated group.

[2] = system: phospho ERK1/2 (T202/Y204) in HUVEC cells; experiment: VEGF-dependent Erk phosphorylation; assay type: cell-based; conditions: VEGF165 150 ng/ml, Western blot, read-out: P_ERK IC50UM
Description: VEGF-Dependent Erk Phosphorylation
HUVEC cells are purchased from Cambrex Bio Science Walkersville, Inc and cultured according to the vendor's instructions. The full-length coding sequence of VEGF165 is cloned using the Gateway Cloning Technology (Invitrogen) for baculovirus expression Sf9 cells. VEGF165 is purified from conditioned media using a NaCl gradient elution from a HiTrap heparin column (GE Healthcare Life Sciences) followed by an imidazole gradient elution from a HiTrap chelating column (GE Healthcare Life Sciences), then buffer stored in PBS supplemented with 0.1% BSA and filter sterilized
Cells are seeded at 8000 cells/well of a 96 wells plate and grown for 48 hours. Cells are then grown overnight in serum and growth factor-free medium and exposed for 1.5 h to compounds dilutions. Following a 15 min incubation in medium, VEGF165 (150 ng/ml) cells are lysed in ice-cold lysis buffer (50 mM HEPES, pH 7.4, 150 mM NaCl, 1.5 mM MgCl2, 1% Triton X-100, 10% glycerol) containing 1 mM 4-(2 aminoethyl)benzenesulfonyl fluoride hydrochloride, 200 μM sodium orthovanadate, 1 mM sodium fluoride, 10 μg/mL leupeptin, 10 μg/mL aprotinin, 1 μg/mL pepstatin and 50 μg/mL Na-p-tosyl-L-lysine chloromethyl ketone hydrochloride and processed as Western blots to detect anti-phospho ERK1/2 (T202/Y204) (Cell Signaling Technologies).
lysates samples from single treatment wells are separated on 5-20% SDS-PAGE gels and immunobloting is performed using Immobilon polyvinylidene difluoride membranes (Amersham) according to the manufacturer's instructions. The blots are washed in Tris-buffered saline with 0.1% Tween 20 detergent (TBST) and probed for antibodies against phospho-Thr202/Tyr204-ERK (Cell signaling technologies. Chemiluminescence detection (Amersham, ECL plus) is performed according to the manufacturer's instructions using a Storm densitometer (GE Healthcare; 800 PMT, […]) for imaging and densitometry analysis. Values of over the range of dilution are used to prepare IC50 curves using a 4-parameter fit model. These curves are calculated using GraFit

VEGFR2 (KDR) = target: T1, VEGFR2 (KDR) (Homo sapiens, UniProt P35968); experiment: In vitro receptor tyrosine kinase assay (VEGF receptor KDR), DELFIA; assay type: biochemical; conditions: recombinant GST-VEGFR2 806-1356, ATP 0.6 uM; read-out: VEGFR IC50UM
T1 construct: made in house; host or cells: Sf9 cells (Spodoptera frugiperda), baculovirus
T1 sequence (P35968 806-1356): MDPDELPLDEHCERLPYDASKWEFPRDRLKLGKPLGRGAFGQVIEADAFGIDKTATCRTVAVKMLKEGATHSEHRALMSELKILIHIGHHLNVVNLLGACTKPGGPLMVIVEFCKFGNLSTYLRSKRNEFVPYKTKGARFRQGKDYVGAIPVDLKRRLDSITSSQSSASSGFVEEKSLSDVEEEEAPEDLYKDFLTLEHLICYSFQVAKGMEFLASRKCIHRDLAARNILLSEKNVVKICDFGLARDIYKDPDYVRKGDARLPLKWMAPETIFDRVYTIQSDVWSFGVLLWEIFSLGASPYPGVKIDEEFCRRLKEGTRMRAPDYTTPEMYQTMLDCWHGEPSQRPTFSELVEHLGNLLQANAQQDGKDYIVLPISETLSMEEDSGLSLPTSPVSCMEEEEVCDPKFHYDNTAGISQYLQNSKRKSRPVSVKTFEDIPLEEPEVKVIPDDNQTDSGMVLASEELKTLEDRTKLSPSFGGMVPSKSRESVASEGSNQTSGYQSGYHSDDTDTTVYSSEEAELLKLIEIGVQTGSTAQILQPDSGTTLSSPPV
Description: In Vitro Receptor Tyrosine Kinase Assay (VEGF Receptor KDR)
This test measures the ability of compounds to inhibit the enzymatic activity of recombinant human VEGF receptor enzymatic activity.
A 1.6-kb cDNA corresponding to the catalytic domain of VEGFR2 (KDR) (Genbank accession number AF035121 amino acid 806 to 1356) is cloned into the Pst I site of the pDEST20 Gateway vector (Invitrogen) for the production of a GST-tagged version of that enzyme. This construct is used to generate recombinant baculovirus using the Bac-to-Bac™ system according to the manufacturer's instructions (Invitrogen).
The GST-VEGFR2806-1356 protein is expressed in Sf9 cells (Spodoptera frugiperda) upon infection with recombinant baculovirus construct. Briefly, Sf9 cells grown in suspension and maintained in serum-free medium (Sf900 II supplemented with gentamycin) at a cell density of about 2×10^6 cells/ml are infected with the above-mentioned viruses at a multiplicity of infection (MOI) of 0.1 during 72 hours at 27° C. with agitation at 120 rpm on a rotary shaker. Infected cells are harvested by centrifugation at 398 g for 15 min. Cell pellets are frozen at −80° C. until purification is performed.
All steps described in cell extraction and purification are performed at 4° C. Frozen Sf9 cell pellets infected with the GST-VEGFR2806-1356 recombinant baculovirus are thawed and gently resuspended in Buffer A (PBS pH 7.3 supplemented with 1 μg/ml pepstatin, 2 μg/ml Aprotinin and leupeptin, 50 μg/ml PMSF, 50 μg/ml TLCK and 10 μM E64 and 0.5 mM DTT) using 3 ml of buffer per gram of cells. Suspension is Dounce homogenized and 1% Triton X-100 is added to the homogenate after which it is centrifuged at 22500 g, 30 min., 4° C. The supernatant (cell extract) is used as starting material for purification of GST-VEGFR2806-1356.
The supernatant is loaded onto a GST-agarose column (Sigma) equilibrated with PBS pH 7.3. Following a four column volume (CV) wash with PBS pH 7.3+1% Triton X-100 and 4 CV wash with buffer B (50 mM Tris pH 8.0, 20% glycerol and 100 mM NaCl), bound proteins are step eluted with 5 CV of buffer B supplemented with 5 mM DTT and 15 mM glutathion. GST-VEGFR2806-1356 enriched fractions from this chromatography step are pooled based on U.V. trace i.e. fractions with high O.D.280. Final GST-VEGFR2806-1356 protein preparations concentrations are about 0.7 mg/ml with purity approximating 70%. Purified GST-VEGFR2806-1356 protein stocks are aliquoted and frozen at −80° C. prior to use in enzymatic assay.
Inhibition of VEGFR/KDR is measured in a DELFIA™ assay (Perkin Elmer). The substrate poly(Glu4,Tyr) is immobilized onto black high-binding polystyrene 96-well plates. The coated plates are washed and stored at 4° C. During the assay, the enzyme is pre-incubated with inhibitor and Mg-ATP on ice in polypropylene 96-well plates for 4 minutes, and then transferred to the coated plates. The subsequent kinase reaction takes place at 30° C. for 10-30 minutes. ATP concentrations in the assay are 0.6 uM for VEGFR/KDR (2× the Km). Enzyme concentration is 5 nM. After incubation, the kinase reactions are quenched with EDTA and the plates are washed. Phosphorylated product is detected by incubation with Europium-labeled anti-phosphotyrosine MoAb. After washing the plates, bound MoAb is detected by time-resolved fluorescence in a Gemini SpectraMax reader (Molecular Devices). Compounds are evaluated over a range of concentrations, and IC50 values (concentration of compounds giving 50% inhibition of enzymatic activity) are determined.

[3] = Rattus norvegicus, 240 h, dose 3 nmol/eye, read-out: Inhibition of CNV Progression (%)

| Structure (SMILES) | inhibition in vivo at 3 nmol/eye [1, 3] [%] | IC50 ([2]; Homo sapiens) [nM] | IC50 (VEGFR2 (KDR)) [nM] | inhibition in vivo at 10 nmol/eye ([1]; Rattus norvegicus, 240 h, dose 10 nmol/eye, read-out: Inhibition of CNV Progression (%)) [%] | Inhibition of CNV Progression (%) ([1]; dose 3 nmol/eye) | IC50 [2] [nM] |
| --- | --- | --- | --- | --- | --- | --- |
| COCCOCCOCCOCCn1cc(-c2cc3nccc(Oc4ccc(NC(=O)NC5CC5)cc4F)c3s2)nn1 [Compound 30, 1-(4-(2-(1-(2,5,8,11-Tetraoxamidecan-13-yl)-1H-1,2,3-triazol-4-yl)thieno[3,2-b]pyridin-7-yloxy)-3-fluorophenyl)-3-cyclopropylurea] | 26.4 | 70 | 18 | – | – | – |
| COCCOCCOCCOCCOc1ccc(NCc2ccc(-c3cc4nccc(Oc5ccc(NC(=O)NC6CC6)cc5F)c4s3)nc2)cc1 [Compound 39] | 24.7 | 6 | 33 | – | – | – |
| COCCOCCOCCOC(=O)N1CCN(Cc2ccc(-c3cc4nccc(Oc5ccc(NC(=O)NC6CC6)cc5F)c4s3)nc2)CC1 [Compound 50, 2-(2-(2-Methoxyethoxy)ethoxy)ethyl 4-((6-(7-(4-(3-cyclopropylureido)-2-fluorophenoxy)thieno[3,2-b]pyridin-2-yl)pyridin-3-yl)methyl)piperazine-1-carboxylate] | – | 0.8 | 8 | 80.6 | – | – |
| COCCOCCOCCOCCN(C(C)=O)C1CCN(Cc2ccc(-c3cc4nccc(Oc5ccc(NC(=O)NC6CC6)cc5F)c4s3)nc2)CC1 [Compound 65, N-(1-((6-(7-(4-(3-Cyclopropylureido)-2-fluorophenoxy)thieno[3,2-b]pyridin-2-yl)pyridin-3-yl)methyl)piperidin-4-yl)-N-(2,5,8,11-tetraoxamidecan-13-yl)acetamide] | – | – | 7 | – | 32.1 | 2 |
